Columns and labels:
[1] = biological target: T1, GPR40 (Homo sapiens, UniProt O14842); experiment: Cell-based aequorin assay (CHO cells stably expressing GPR40 and aequorin); set-up: expressed in transfected cells; host or cells: CHO cells stably transfected with GPR40 and aequorin; details: activation of human GPR40, CHO cells, 0.01% HSA
Summary of the method: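 CHO cells stably co-expressing GPR40 and aequorin, loaded with coelenterazine (1 ug/mL, 2 h, room temperature) in H/HBSS with 20 mM Hepes and 0.01% fatty acid-free HSA. Serially diluted compounds added; luminescence recorded over 20 s. EC50 from dose-response of maximum relative light units.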

[2] = biological target: T1, GPR40; experiment: Inositol phosphate accumulation assay (A9_GPR40 cells); format: cell-based; set-up: expressed in transfected cells; host or cells: CHO cells stably transfected with GPR40 and aequorin; details: inositol phosphate assay, A9_GPR40 cells, 1 hour; read-out: IP3 EC50
Summary of the method: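 A9 cells stably expressing GPR40 were labelled 16 h with 1 μCi/mL ^3H-inositol in inositol-free DMEM with dialysed FBS. Compounds in HBSS/10 mM LiCl with HSA were applied for 1 h at 37° C, then quenched with 20 mM formic acid. Accumulated [^3H] inositol phosphates were counted by SPA.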

T1 sequence (O14842 whole entry): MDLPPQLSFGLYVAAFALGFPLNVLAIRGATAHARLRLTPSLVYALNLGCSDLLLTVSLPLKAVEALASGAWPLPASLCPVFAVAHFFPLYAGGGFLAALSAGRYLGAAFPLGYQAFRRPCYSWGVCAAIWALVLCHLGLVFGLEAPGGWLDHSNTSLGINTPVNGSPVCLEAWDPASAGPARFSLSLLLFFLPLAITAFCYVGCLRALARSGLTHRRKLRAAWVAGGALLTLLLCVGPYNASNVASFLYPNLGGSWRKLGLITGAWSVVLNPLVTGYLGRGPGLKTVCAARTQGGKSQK

SMILES	EC50 [1] [nM]	EC50 [2] [nM]
COc1cc(-c2ccc(COc3cccc(C(CC(=O)O)C4CC4)c3)cc2C2=CCCCC2(C)C)c(F)cn1 (single isomer, unassigned) [Example 66.34, (3S)-3-Cyclopropyl-3-(3-(((3-(6,6-dimethyl-1-cyclohexen-1-yl)-4-(5-fluoro-2-(methyloxy)-4-pyridinyl)phenyl)methyl)oxy)phenyl)propanoic acid or (3S)-3-Cyclopropyl-3-(3-(((3-(6,6-dimethyl-1-cyclohexen-1-yl)-4-(5-fluoro-2-(methyloxy)-4-pyridinyl)phenyl)methyl)oxy)phenyl)propanoic acid]	10 to 100	10 to 100
COc1cc(-c2cc(F)c(COc3cccc([C@@H](CC(=O)O)C4CC4)c3F)cc2[C@H]2CCCC2(C)C)c(F)cn1 (single isomer, unassigned) [Example 83.34]	10 to 100	< 10
CCC(CC(=O)O)c1cccc(OCc2ccc(-c3cc(OC)ccc3F)c(C3CCCCC3(C)C)c2)c1 (single isomer, unassigned) [Example 78.11]	10 to 100	< 10
CCCCOc1cc(COc2cccc([C@@H](CC(=O)O)C(F)(F)F)c2)ccc1-c1cc(OC)ccc1F (single isomer, unassigned) [Example 7, (3R)-3-(3-(((2-(Butyloxy)-2′-fluoro-5′-(methyloxy)-1,1′-biphenyl-4-yl)methyl)oxy)phenyl)-4,4,4-trifluorobutanoic acid or (3S)-3-(3-(((2-(butyloxy)-2′-fluoro-5′-(methyloxy)-1,1′-biphenyl-4-yl)methyl)oxy)phenyl)-4,4,4-trifluorobutanoic acid]	1000 to 10000	1000 to 10000
COc1ccc(F)c(-c2ccc(COc3cccc(C(CC(=O)O)C4CCC4)c3)cc2C2CCCC2(C)C)c1 (single isomer, unassigned) [Example 79.3]	100 to 1000	10 to 100
CO[C@H](c1cc(COc2cccc([C@@H](CC(=O)O)C3CC3)c2F)ccc1-c1cc(F)ccc1F)C(C)(C)C (single isomer, unassigned) [Example 83.27]	100 to 1000	10 to 100
COc1ccc(F)c(-c2ccc(COc3cccc(C(CC(=O)O)CC4CC4)c3)cc2C2=CCCC2(C)C)c1 (single isomer, unassigned) [Example 69.6, (3R)-4-Cyclopropyl-3-(3-(((2-(5,5-dimethyl-1-cyclopenten-1-yl)-2′-fluoro-5′-(methyloxy)-1,1′-biphenyl-4-yl)methyl)oxy)phenyl)butanoic acid or (3S)-4-cyclopropyl-3-(3-(((2-(5,5-dimethyl-1-cyclopenten-1-yl)-2′-fluoro-5′-(methyloxy)-1,1′-biphenyl-4-yl)methyl)oxy)phenyl)butanoic acid]	100 to 1000	10 to 100
COc1cccc(-c2ccc(COc3cccc([C@H](C)CC(=O)O)c3)cc2C(C)(C)C)c1 (single isomer, unassigned) [Example 47, (3R)-3-(3-(((2-(1,1-Dimethylethyl)-3′-(methyloxy)-1,1′-biphenyl-4-yl)methyl)oxy)phenyl)butanoic acid or (3S)-3-(3-(((2-(1,1-dimethylethyl)-3′-(methyloxy)-1,1′-biphenyl-4-yl)methyl)oxy)phenyl)butanoic acid]	100 to 1000	100 to 1000
CCC(CC(=O)O)c1cccc(OCc2ccc(-c3cccc(OC)c3)c(C3CCCC3(C)C)c2)c1 (single isomer, unassigned) [Example 78.6]	10 to 100	< 10
COc1ccc(F)c(-c2ccc(COc3cccc(C(CC(=O)O)CC4CC4)c3)cc2N2CCCCCC2)c1 (single isomer, unassigned) [Example 69.29, (3R)-3-(3-(((2-(1-Azepanyl)-2′-fluoro-5′-(methyloxy)-1,1′-biphenyl-4-yl)methyl)oxy)phenyl)-4-cyclopropylbutanoic acid or (3S)-3-(3-(((2-(1-azepanyl)-2′-fluoro-5′-(methyloxy)-1,1′-biphenyl-4-yl)methyl)oxy)phenyl)-4-cyclopropylbutanoic acid]	100 to 1000	100 to 1000
COc1ccc(F)c(-c2ccc(COc3cccc(C(C)CC(=O)O)c3)cc2/C=C/C(C)(C)C)c1 (single isomer, unassigned) [Example 64.4, (3R)-3-(3-(((2-((1E)-3,3-Dimethyl-1-butenyl)-2′-fluoro-5′-(methyloxy)-1,1′-biphenyl-4-yl)methyl)oxy)phenyl)butanoic acid or (3S)-3-(3-(((2-((1E)-3,3-dimethyl-1-butenyl)-2′-fluoro-5′-(methyloxy)-1,1′-biphenyl-4-yl)methyl)oxy)phenyl)butanoic acid]	100 to 1000	10 to 100
COc1ccc(F)c(-c2ccc(COc3cccc([C@H](C)CC(=O)O)c3)cc2C23CC4CC(CC(C4)C2)C3)c1 (single isomer, unassigned) [Example 64.16, (3R)-3-(3-(((2′-Fluoro-5′-(methyloxy)-2-tricyclo[3.3.1.1˜3,7˜]dec-1-yl-1,1′-biphenyl-4-yl)methyl)oxy)phenyl)butanoic acid or (3S)-3-(3-(((2′-fluoro-5′-(methyloxy)-2-tricyclo[3.3.1.1˜3,7˜]dec-1-yl-1,1′-biphenyl-4-yl)methyl)oxy)phenyl)butanoic acid]	100 to 1000	10 to 100
COc1ccc(F)c(-c2ccc(COc3cccc([C@@H](CC(=O)O)C4CC4)c3)cc2[C@@H](OC)C(C)(C)C)c1 (single isomer, unassigned) [Example 66.13]	100 to 1000	< 10
COc1ccc(F)c(-c2ccc(COc3cccc([C@@H](CC(=O)O)C4CC4)c3)cc2[C@@H]2CCCCC2(C)C)c1 (single isomer, unassigned) [Example 66.22]	10 to 100	< 10
COc1ccc(F)c(-c2ccc(COc3cccc([C@@H](CC(=O)O)C4CC4)c3)cc2[C@@H](OCc2ccccc2)C(C)(C)C)c1 (single isomer, unassigned) [Example 66.28]	100 to 1000	< 10
COc1cc(-c2ccc(COc3cccc([C@@H](CC(=O)O)C4CC4)c3)cc2C2=CCCC2(C)C)c(F)cn1 (single isomer, unassigned) [Example 66.12, (3S)-3-(3-(3-(5,5-Dimethylcyclopent-1-enyl)-4-(5-fluoro-2-methoxypyridin-4-yl)benzyloxy)phenyl)-3-cyclopropylpropanoic acid or (3R)-3-(3-(3-(5,5-dimethylcyclopent-1-enyl)-4-(5-fluoro-2-methoxypyridin-4-yl)benzyloxy)phenyl)-3-cyclopropylpropanoic acid]	100 to 1000	10 to 100
COc1ccc(F)c(-c2ccc(COc3cccc(C(C)CC(=O)O)c3)cc2C2=CCCCC2)c1 (single isomer, unassigned) [Example 64.21, (3R)-3-(3-(((2-(1-Cyclohexen-1-yl)-2′-fluoro-5′-(methyloxy)-1,1′-biphenyl-4-yl)methyl)oxy)phenyl)butanoic acid or (3S)-3-(3-(((2-(1-cyclohexen-1-yl)-2′-fluoro-5′-(methyloxy)-1,1′-biphenyl-4-yl)methyl)oxy)phenyl)butanoic acid]	100 to 1000	10 to 100
COc1ccc(F)c(-c2c(F)cc(COc3cccc([C@@H](CC(=O)O)C4CC4)c3F)cc2[C@H]2CCCC2(C)C)c1 (single isomer, unassigned) [Example 83.20]	100 to 1000	< 10
COc1cccc(-c2ccc(COc3cccc(C(CC(=O)O)CC4CC4)c3)cc2C2CCCCCC2)c1 (single isomer, unassigned) [Example 69.11, (3R)-3-(3-(((2-Cycloheptyl-3′-(methyloxy)-1,1′-biphenyl-4-yl)methyl)oxy)phenyl)-4-cyclopropylbutanoic acid or (3S)-3-(3-(((2-cycloheptyl-3′-(methyloxy)-1,1′-biphenyl-4-yl)methyl)oxy)phenyl)-4-cyclopropylbutanoic acid]	100 to 1000	10 to 100
CCCCOc1cc(COc2cccc([C@H](C)CC(=O)O)c2)ccc1-c1cccc(OC)c1 (single isomer, unassigned) [Example 20, (3R)-3-(3-(((2-(Butyloxy)-3′-(methyloxy)-1,1′-biphenyl-4-yl)methyl)oxy)phenyl)butanoic acid or (3S)-3-(3-(((2-(butyloxy)-3′-(methyloxy)-1,1′-biphenyl-4-yl)methyl)oxy)phenyl)butanoic acid]	100 to 1000	100 to 1000
COc1ccc(F)c(-c2c(F)cc(COc3cccc([C@@H](CC(=O)O)C4CC4)c3F)cc2[C@@H]2CCCC2(C)C)c1 (single isomer, unassigned) [Example 83.24]	100 to 1000	10 to 100
CCCC(CC(=O)O)c1cccc(OCc2ccc(-c3cc(OC)ccc3F)c(OC3CCCCCC3)c2)c1 (single isomer, unassigned) [Example 67.2, (3R)-3-(3-(((2-(Cycloheptyloxy)-2′-fluoro-5′-(methyloxy)-1,1′-biphenyl-4-yl)methyl)oxy)phenyl)hexanoic acid or (3S)-3-(3-(((2-(cycloheptyloxy)-2′-fluoro-5′-(methyloxy)-1,1′-biphenyl-4-yl)methyl)oxy)phenyl)hexanoic acid]	100 to 1000	100 to 1000

Source: patent publication US8030354B2, “Substituted biphenyl GPR40 modulators” (Amgen Inc., priority 2007, dated 2011)
